According to ChEMBL document CHEMBL5113492, “Design, synthesis, and biological evalution of bifunctional inhibitors against Hsp90-HDAC6 interplay” (Eur J Med Chem, 2022):
Calls of active or inactive are those of the source. The rule behind the calls is not given here.

Key:
NCI-H1975 = assay: Antiproliferative activity against human NCI-H1975 cells assessed as growth inhibition incubated upto 72 hrs by CellTiter96 Aqueous One Solution Cell Proliferation assay; format: functional
[1] = target: Heat shock protein HSP 90-alpha (Homo sapiens, UniProt P07900); assay: Inhibition of His-tagged N-terminal recombinant HSP90alpha (unknown origin) expressed in Escherichia coli BL21 (DE3) incubated for 4 hrs by fluorescence polarization based microplate reader assay
[2] = target: T1, Protein deacetylase HDAC6 (Homo sapiens) (UniProt Q9UBN7); assay: Inhibition of HDAC6 in human NCI-H1975 cells assessed as increase in acetylation of alpha tubulin at 1 uM incubated for 24 hrs by western blot analysis; format: cell-based
T1 sequence (whole entry): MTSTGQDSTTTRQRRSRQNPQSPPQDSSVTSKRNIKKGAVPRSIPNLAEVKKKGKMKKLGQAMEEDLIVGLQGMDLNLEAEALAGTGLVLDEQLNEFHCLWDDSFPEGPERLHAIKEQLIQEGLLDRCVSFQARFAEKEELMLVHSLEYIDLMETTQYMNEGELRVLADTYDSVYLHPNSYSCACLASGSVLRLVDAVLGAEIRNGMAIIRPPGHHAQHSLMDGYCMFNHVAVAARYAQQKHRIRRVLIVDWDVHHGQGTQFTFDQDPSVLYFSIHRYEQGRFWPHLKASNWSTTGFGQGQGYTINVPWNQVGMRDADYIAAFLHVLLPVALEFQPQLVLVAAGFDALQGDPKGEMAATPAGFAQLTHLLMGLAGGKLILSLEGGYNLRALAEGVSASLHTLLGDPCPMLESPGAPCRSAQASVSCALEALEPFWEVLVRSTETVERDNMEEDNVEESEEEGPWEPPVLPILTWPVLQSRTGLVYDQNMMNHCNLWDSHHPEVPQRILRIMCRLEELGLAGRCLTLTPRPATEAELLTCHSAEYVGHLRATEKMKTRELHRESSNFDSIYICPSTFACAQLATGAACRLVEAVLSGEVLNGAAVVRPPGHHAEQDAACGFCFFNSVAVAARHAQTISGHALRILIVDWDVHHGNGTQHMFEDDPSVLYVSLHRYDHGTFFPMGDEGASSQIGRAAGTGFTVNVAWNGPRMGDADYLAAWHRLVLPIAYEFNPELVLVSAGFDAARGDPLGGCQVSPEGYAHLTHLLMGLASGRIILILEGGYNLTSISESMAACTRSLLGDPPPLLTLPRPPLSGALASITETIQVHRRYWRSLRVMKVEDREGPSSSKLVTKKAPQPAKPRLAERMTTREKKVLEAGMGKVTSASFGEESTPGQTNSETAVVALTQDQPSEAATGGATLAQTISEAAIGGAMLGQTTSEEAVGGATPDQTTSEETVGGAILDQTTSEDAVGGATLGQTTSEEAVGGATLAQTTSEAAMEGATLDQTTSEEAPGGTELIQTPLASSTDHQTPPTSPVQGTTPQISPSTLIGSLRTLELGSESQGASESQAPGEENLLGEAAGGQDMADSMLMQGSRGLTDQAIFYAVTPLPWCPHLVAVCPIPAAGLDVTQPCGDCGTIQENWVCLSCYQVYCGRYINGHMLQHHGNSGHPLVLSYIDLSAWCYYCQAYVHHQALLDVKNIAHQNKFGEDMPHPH

[3] = target: T2, Heat shock protein HSP90 (Homo sapiens) (UniProt P07900+P08238); assay: Inhibition of HSP90 in human NCI-H1975 cells assessed as upregulation of HSP70 expression at 2 uM incubated for 24 hrs by western blot analysis; format: cell-based
[4] = target: T2, Heat shock protein HSP90 (Homo sapiens); assay: Inhibition of HSP90 in human NCI-H1975 cells assessed as downregulation of EGFR expression at 2 uM incubated for 24 hrs by western blot analysis; format: cell-based
[5] = target: T2, Heat shock protein HSP90 (Homo sapiens); assay: Inhibition of HSP90 in human NCI-H1975 cells assessed as downregulation of Akt expression at 2 uM incubated for 24 hrs by western blot analysis; format: cell-based
[6] = target: T2, Heat shock protein HSP90 (Homo sapiens); assay: Inhibition of HSP90 in human NCI-H1975 cells assessed as downregulation of Her2 expression at 2 uM incubated for 24 hrs by western blot analysis; format: cell-based
[7] = target: T1, Protein deacetylase HDAC6 (Homo sapiens); assay: Inhibition of HDAC6 in human NCI-H1975 cells assessed as increase in acetylation of HSP90-Lys 294 residue at 2 uM incubated for 24 hrs by western blot analysis; format: cell-based
[8] = target: T2, Heat shock protein HSP90 (Homo sapiens); assay: Inhibition of HSP90 in human NCI-H1975 cells assessed as downregulation of Met expression at 2 uM incubated for 24 hrs by western blot analysis; format: cell-based

GI50 (NCI-H1975) | IC50 [1] | Structure (SMILES) | further results
7 µM | 0.22 µM | CCN(Cc1ccc(C(=O)NO)cc1)C(=O)c1cc(C(C)C)c(O)cc1O | –
23.7 µM | 0.648 µM | CCCN(Cc1ccc(C(=O)NO)cc1)C(=O)c1cc(C(C)C)c(O)cc1O | –
23.6 µM | 0.367 µM | CCCCN(Cc1ccc(C(=O)NO)cc1)C(=O)c1cc(C(C)C)c(O)cc1O | –
13.2 µM | 0.693 µM | CCN(Cc1ccc(C(=O)NO)cc1)C(=O)c1cc(Cl)c(O)cc1O | –

Further lines, the molecule ahead of its results:

Structure (SMILES) | GI50 (NCI-H1975) | IC50 [1] | further results
COC1=C2C[C@@H](C)C[C@H](OC)[C@H](O)[C@@H](C)/C=C(\C)[C@H](OC(N)=O)[C@@H](OC)/C=C\C=C(/C)C(=O)NC(=CC1=O)C2=O | – | – | inhibition [2]: Active
COC(=O)c1ccc(CN(C)C(=O)c2cc(C(C)C)c(O)cc2O)cc1 | 3.5 µM | – | inhibition [3]: Active; inhibition [4]: Active; inhibition [5]: Active; inhibition [6]: Active; inhibition [7]: Active; inhibition [8]: Active
CN(Cc1ccc(C(=O)NO)cc1)C(=O)c1ccccc1 | 8.2 µM | > 1 µM | –
CC(C)c1cc(C(=O)N(C)Cc2ccc(C(=O)O)cc2)c(O)cc1O | 30 µM | – | –
CCCCN(Cc1ccc(C(=O)NO)cc1)C(=O)c1cc(Cl)c(O)cc1O | 66.4 µM | 0.632 µM | –
CN(Cc1ccc(C(=O)NO)cc1)C(=O)c1cc(Cl)c(O)cc1O | 68.8 µM | 0.608 µM | –
CCCN(Cc1ccc(C(=O)NO)cc1)C(=O)c1cc(Cl)c(O)cc1O | 73.6 µM | > 1 µM | –
